Measurements published in patent US20250295579A1, “SKIN CARE COMPOSITION AND USES THEREOF” (S-BIOMEDIC NV, priority 2022, published 2025).

How the values were obtained:
Test in all cases: Influence of cosmetic ingredients on C. acnes growth in 96-well plates (OD600)
Format in all cases: cell-based, Cutibacterium acnes
C. acnes D1 strain = system: C. acnes D1 strain
Description: (§1) One day before the experiment: starter bacterial cultures of C. acnes A1, D1, H1 and K8 strains from the working cell bank (WCB) glycerol stocks were prepared in a final volume of 15 ml. The C. acnes strains were isolated from healthy volunteers and they were characterized for their growth, 16S and SLST sequence to identify the specific strain. The volumes of WCB were 1 ml for A1 and 300 μl for D1, H1, and K8. The cultures were incubated overnight at 37° C.
(§2) At the day of the experiment, after 24 h incubation, inoculums were taken out of the incubator and homogenized with vortex. 50 μl aliquots were separated from each inoculum to 1.5 ml tubes and their OD600 was measured by Nanodrop.
(§3) Each aliquot was measured twice and its OD600 was determined by calculating the mean value. The tubes were centrifuged (3000 rcf, 5 min) and the supernatant was discarded. The pellet was resuspended in 15 ml of PBS (phosphate buffered saline). This washing, consisting of centrifugation, discarding the supernatant, and resuspension was repeated. Then, the OD600 was adjusted in PBS to 2 for each strain. Small aliquots were separated and read on Nanodrop again at the end of this process to ensure a starting OD600 of 2 (+/−0.2) in the bacterial cultures.
(§4) All the ingredients were tested in either of the two different media: PBS 3% w/v Glucose and PBS 1% w/v Peptone. Additionally, all strains were grown on PBS and PBS 3% w/v Glucose 1% w/v Peptone, as negative and positive control, respectively.
(§5) Medium was prepared at 2.5×concentration and then diluted to 1× when mixed with the ingredient and inoculum into the test plates.
(§6) PBS 7.5% w/v Glucose media was filter sterilized (Millipore pump). 50% w/v Peptone diluted in ultrapure water (Milli-Q) was prepared, autoclaved and then diluted to 2.5% w/v with PBS. PBS 7.5% w/v Glucose 2.5% w/v peptone media was prepared diluting 50% Peptone on filtered PBS 7.125% Glucose.
(§7) The range of concentrations tested was based on the concentration that the chosen compound could have in the final cosmetic product. Three different concentrations were tested for each ingredient: maximum concentration, minimum concentration and a concentration in the middle between the maximum and minimum concentration (half of the highest one).
(§8) All compounds were prepared on milliQ water. 50 ml of stocks for each ingredient were prepared at double of the highest concentration to be tested. After solubilization, the ingredients were filter sterilized.
(§9) The experiment was performed in transparent 96-well plates. Each one of them contained one media (either peptone or glucose), one strain inoculum and either of the ingredients. The final volume in each well was 200 μl: 100 μl of 2× ingredient, 80 μl of 2.5× medium and 20 μl of bacterial inoculum of OD600. Triplicates were done for every condition. Controls without ingredient and without bacteria were included in this experiment to detect possible contaminations.
(§10) One 96-well 2 ml deep well-plate was used for each batch. The double concentrated ingredients were distributed manually on the deep well plate and the corresponding serial dilutions were performed on PBS with an automatic multichannel pipette. Then, the content of each deep well plate was distributed to 8 different 96-standard well plate with Zephyr SPE workstation (automated liquid handler).
(§11) 100 μl of ingredient per well were transferred to each plate. The zephyr program contained a resuspension step on the deep well plate and a step in which the tips leaned on the sides of each well of the plates to ensure the accurate volume disposal.
(§12) Once the 100 μl of ingredient were transferred to each plate, 80 μl of either Glucose or Peptone medium was poured into the plate with Multidrop Combi Plate dispenser (Thermo Fisher). The multidrop was also used to dispense 20 μl per well of the corresponding strain inoculum, which was previously prepared as described in the previous part. […]

C. acnes H1 strain = system: C. acnes H1 strain
Description: as §1, §2, §3, §4, §5, §6, §7, §8, §9, §10, §11, §12

C. acnes K8 strain = system: C. acnes K8 strain
Description: as §1, §2, §3, §4, §5, §6, §7, §8, §9, §10, §11, §12

C. acnes A1 strain = conditions: PBS 1% w/v peptone
Description: as §1, §2, §3, §4, §5, §6, §7, §8, §9, §10, §11, §12

[1] = 0.075% w/v sodium cetaryl sulphate, PBS 3% w/v glucose, FIG. 5
[2] = 1% w/v sorbitol, PBS 1% w/v peptone, FIG. 2
[3] = 3% w/v sodium lactate, PBS 1% w/v peptone, FIG. 3
[4] = 1% v/v glycerol, PBS 1% w/v peptone, FIG. 1

What does the source list for “sodium cetearyl sulphate [Sodium cetaryl sulphate]”?
effect on growth (C. acnes D1 strain; [1]): selectively and significantly improved the growth; effect on growth (C. acnes H1 strain; [1]): selectively and significantly improved the growth; effect on growth (C. acnes K8 strain; [1]): Negative effect

`OC[C@@H](O)[C@@H](O)[C@H](O)[C@@H](O)CO` [Sorbitol] was tested. Which effect on growth (C. acnes A1 strain; 1% w/v sorbitol, FIG. 2) did it give?
The effect on growth was “improved the growth”.

What about the effect on growth (C. acnes D1 strain; [2]) of the same compound?
The effect on growth was “improved the growth”.

And the “growth improved by a factor” value (C. acnes H1 strain; [2])?
Its value is 4.5.

What about the effect on growth (C. acnes K8 strain; [2]) of the same compound?
Its effect on growth is “improved the growth”.

Which results are given for `CC(O)C(=O)[O-].[Na+]` (stereo not drawn) [Sodium lactate, sodium lactate]?
effect on growth (C. acnes A1 strain; 3% w/v sodium lactate, FIG. 3): improved the growth; effect on growth (C. acnes D1 strain; [3]): improved the growth; effect on growth (C. acnes H1 strain; [3]): improved the growth; effect on growth (C. acnes K8 strain; [3]): improved the growth of the four tested strains, with a higher effect on the strain K8

Which results are given for `OCC(O)CO` [Glycerol]?
improvement of growth compared to the peptone control condition (C. acnes A1 strain; 1% v/v glycerol, FIG. 1): four; improvement of growth compared to the peptone control condition (C. acnes D1 strain; [4]): four; improvement of growth compared to the peptone control condition (C. acnes H1 strain; [4]): four; improvement of growth compared to the peptone control condition (C. acnes K8 strain; [4]): four
